PubChem BioAssay AID248 (DTP/NCI, 2004)
Toxic doses and inconclusive results are not listed. Cut-off read from the data, not from the text of the source: active = T/C of 150% or more; inactive = T/C below 125%. Square brackets hold non-standard residues; d marks the D form. Peptide text beside a SMILES is read from it. * marks the point of attachment. ξ: configuration not given here. Cbz = O=C(OCc1ccccc1)*; ξA = CC(N)C(=O)O

Tested on: L1210 leukemia ip in BDF1 mice, survival T/C
Assay: NCI In Vivo Anticancer Drug Screen. Data for tumor model L1210 Leukemia (intraperitoneal) in B6D2F1 (BDF1) mice
Conditions: endpoint: mean survival time, higher = longer survival
Method in brief: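 Read-out is survival time, reported as the treated-group measurement over the vehicle-control measurement.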

[1] = dose: 100.0 mg/kg/injection, schedule: Q01DX001 (ip), vehicle: saline with Tween-80
[2] = dose: 200.0 mg/kg/injection, schedule: Q01DX001 (ip), vehicle: saline with Tween-80
[3] = dose: 400.0 mg/kg/injection, schedule: Q01DX001 (ip), vehicle: saline with Tween-80
[4] = dose: 100.0 mg/kg/injection, schedule: Q04DX003 (ip), vehicle: saline with Tween-80
[5] = dose: 200.0 mg/kg/injection, schedule: Q04DX003 (ip), vehicle: saline with Tween-80
[6] = dose: 400.0 mg/kg/injection, schedule: Q04DX003 (ip), vehicle: saline with Tween-80
[7] = dose: 100.0 mg/kg/injection, schedule: Q01DX009 (ip), vehicle: Klucel (hydroxypropylcellulose) (HPC)
[8] = dose: 100.0 mg/kg/injection, schedule: Q04DX003 (ip), vehicle: Klucel (hydroxypropylcellulose) (HPC)
[9] = dose: 200.0 mg/kg/injection, schedule: Q01DX009 (ip), vehicle: Klucel (hydroxypropylcellulose) (HPC)
[10] = dose: 200.0 mg/kg/injection, schedule: Q04DX003 (ip), vehicle: Klucel (hydroxypropylcellulose) (HPC)
[11] = dose: 400.0 mg/kg/injection, schedule: Q01DX009 (ip), vehicle: Klucel (hydroxypropylcellulose) (HPC)
[12] = dose: 400.0 mg/kg/injection, schedule: Q04DX003 (ip), vehicle: Klucel (hydroxypropylcellulose) (HPC)
[13] = dose: 100.0 mg/kg/injection, schedule: Q04DX003 (ip), vehicle: saline
[14] = dose: 200.0 mg/kg/injection, schedule: Q04DX003 (ip), vehicle: saline
[15] = dose: 400.0 mg/kg/injection, schedule: Q04DX003 (ip), vehicle: saline
[16] = dose: 50.0 mg/kg/injection, schedule: Q01DX009 (ip), vehicle: saline with Tween-80
[17] = dose: 200.0 mg/kg/injection, schedule: Q01DX009 (ip), vehicle: saline with Tween-80
[18] = dose: 100.0 mg/kg/injection, schedule: Q01DX001 (ip), vehicle: saline

Measured: T/C

NC(N)=N/N=C/c1ccc(O)c(S(=O)(=O)O)c1
inactive: dose: 15.0 mg/kg/injection, schedule: Q01DX Z (ip), vehicle: saline 97 % of control | dose: 30.0 mg/kg/injection, schedule: Q01DX Z (ip), vehicle: saline 90 % of control | dose: 60.0 mg/kg/injection, schedule: Q01DX Z (ip), vehicle: saline 87 % of control | dose: 60.0 mg/kg/injection, schedule: Q01DX Z (oral), vehicle: saline 97 % of control | dose: 120.0 mg/kg/injection, schedule: Q01DX Z (ip), vehicle: saline 90 % of control | dose: 120.0 mg/kg/injection, schedule: Q01DX Z (oral), vehicle: saline 104 % of control | dose: 240.0 mg/kg/injection, schedule: Q01DX Z (oral), vehicle: saline 95 % of control | dose: 480.0 mg/kg/injection, schedule: Q01DX Z (ip), vehicle: saline 90 % of control | dose: 480.0 mg/kg/injection, schedule: Q01DX Z (oral), vehicle: saline 95 % of control

CCCCCCCCCCCCOC(=O)c1cc(O)c(O)c(O)c1
inactive: dose: 75.0 mg/kg/injection, schedule: Q01DX001 (ip), vehicle: acetone 103 % of control

c1ccc(-c2c(-c3ccccc3)c(-c3ccccc3)c(-c3ccc(Oc4ccc(-c5c(-c6ccccc6)c(-c6ccccc6)c(-c6ccccc6)c(-c6ccccc6)c5-c5ccccc5)cc4)cc3)c(-c3ccccc3)c2-c2ccccc2)cc1
inactive: [1] 92 % of control | [2] 92 % of control | [3] 100 % of control

O=C1CCC(=O)N1C1C=CC=CC=C1
inactive: [4] 98 % of control | [5] 97 % of control | [6] 96 % of control

CC(NC(=O)CNC(=O)OCc1ccccc1)C(N)=O (stereo not drawn) (Cbz-Gly-[ξA]-NH2)
inactive: [4] 102 % of control | [5] 101 % of control | [6] 101 % of control

CCC(=O)OC1C(C)OC(OC2C(C)OC(O[C@H]3[C@@H](CC=O)C[C@@H](C)[C@@H](O)/C=C/C=C/C[C@@H](C)OC(=O)C[C@@H](OC(=O)CC)[C@@H]3OC)C(O)C2N(C)C)CC1(C)O (some centres undefined)
inactive: [7] 96 % of control | [8] 104 % of control | [9] 93 % of control | [10] 95 % of control | [11] 98 % of control | [12] 91 % of control

O=C1OC(O)C(Cl)=C1Cl (centres undefined)
inactive: dose: 6.25 mg/kg/injection, schedule: Q04DX002 (ip), vehicle: saline with Tween-80 107 % of control | dose: 12.5 mg/kg/injection, schedule: Q04DX002 (ip), vehicle: saline with Tween-80 103 % of control | dose: 25.0 mg/kg/injection, schedule: Q04DX002 (ip), vehicle: saline with Tween-80 114 % of control

c1cc2c(cc1C1SCSCS1)OCO2
inactive: [7] 98 % of control | [8] 96 % of control | [9] 92 % of control | [10] 98 % of control | [11] 90 % of control | [12] 98 % of control

COc1ccc(C(C)(C)CC(=O)O)cc1OC
inactive: [1] 92 % of control | [2] 92 % of control | [3] 95 % of control

Clc1c2ccccc2c(Cl)c2ccccc12
inactive: dose: 3.1 mg/kg/injection, schedule: Q04DX002 (ip), vehicle: Klucel (hydroxypropylcellulose) (HPC) 89 % of control | dose: 6.25 mg/kg/injection, schedule: Q04DX002 (ip), vehicle: Klucel (hydroxypropylcellulose) (HPC) 100 % of control | dose: 12.5 mg/kg/injection, schedule: Q04DX002 (ip), vehicle: Klucel (hydroxypropylcellulose) (HPC) 93 % of control | dose: 25.0 mg/kg/injection, schedule: Q04DX002 (ip), vehicle: Klucel (hydroxypropylcellulose) (HPC) 90 % of control

O=C1CCC(OC(=O)c2ccccc2)CC1
inactive: [7] 97 % of control | [8] 101 % of control | [9] 95 % of control | [10] 101 % of control | [11] 100 % of control | [12] 90 % of control

[Cl][Gd]([Cl])[Cl]
inactive: [13] 94 % of control | [14] 115 % of control | [15] 95 % of control

CC(O)(C(=O)O)c1ccc(Cl)c(Cl)c1 (centres undefined)
inactive: dose: 12.5 mg/kg/injection, schedule: Q01DX009 (ip), vehicle: saline with Tween-80 93 % of control | dose: 25.0 mg/kg/injection, schedule: Q01DX009 (ip), vehicle: saline with Tween-80 93 % of control | [16] 89 % of control | [17] 100 % of control

NS(=O)(=O)Cc1ccccc1
inactive: dose: 25.0 mg/kg/injection, schedule: Q01DX009 (ip), vehicle: saline 92 % of control | dose: 50.0 mg/kg/injection, schedule: Q01DX009 (ip), vehicle: saline 94 % of control | dose: 100.0 mg/kg/injection, schedule: Q01DX009 (ip), vehicle: saline 100 % of control

C=C1C=C(C)N(C(=O)c2ccccc2)CCN1C(=O)c1ccccc1
inactive: [13] 96 % of control | [14] 95 % of control | [15] 106 % of control

O=[N+]([O-])c1c[nH]c2ncnc(Cl)c12
inactive: dose: 50.0 mg/kg/injection, schedule: Q01DX001 (ip), vehicle: carboxymethylcellulose (CMC) 98 % of control | dose: 100.0 mg/kg/injection, schedule: Q01DX001 (ip), vehicle: carboxymethylcellulose (CMC) 89 % of control | dose: 200.0 mg/kg/injection, schedule: Q01DX001 (ip), vehicle: carboxymethylcellulose (CMC) 106 % of control

c1ccc2ncccc2c1
inactive: [8] 101 % of control | [10] 95 % of control

O=[N+]([O-])c1cc(Br)c(N=Nc2ccc(O)cc2)c(Br)c1
inactive: dose: 50.0 mg/kg/injection, schedule: Q01DX001 (ip), vehicle: saline 92 % of control | [18] 114 % of control | dose: 200.0 mg/kg/injection, schedule: Q01DX001 (ip), vehicle: saline 97 % of control | dose: 400.0 mg/kg/injection, schedule: Q01DX001 (ip), vehicle: saline 92 % of control

COC(=O)NC(=S)Nc1ccccc1NC(=S)NC(=O)OC
inactive: dose: 25.0 mg/kg/injection, schedule: Q01DX009 (ip), vehicle: Klucel (hydroxypropylcellulose) (HPC) 94 % of control | dose: 50.0 mg/kg/injection, schedule: Q01DX009 (ip), vehicle: Klucel (hydroxypropylcellulose) (HPC) 102 % of control | [7] 105 % of control | [8] 96 % of control | [10] 99 % of control | [12] 87 % of control

BrC1CCCCN1Cc1cc2ccccc2cc1CN1CCCCC1Br (centres undefined)
inactive: dose: 9.38 mg/kg/injection, schedule: Q01DX001 (ip), vehicle: other 100 % of control | dose: 18.75 mg/kg/injection, schedule: Q01DX001 (ip), vehicle: other 102 % of control

CCCC#CC(=O)OCCCC
inactive: dose: 100.0 mg/kg/injection, schedule: Q04DX002 (ip), vehicle: saline with Tween-80 93 % of control | dose: 200.0 mg/kg/injection, schedule: Q04DX002 (ip), vehicle: saline with Tween-80 90 % of control | dose: 400.0 mg/kg/injection, schedule: Q04DX002 (ip), vehicle: saline with Tween-80 90 % of control

CCC[n+]1nsc2ccccc21
inactive: [18] 101 % of control

N#CC1(c2ccccc2)CC(C(=O)c2ccccc2)C(O)(c2ccccc2)CC1c1ccccc1 (centres undefined)
inactive: [16] 101 % of control | dose: 100.0 mg/kg/injection, schedule: Q01DX009 (ip), vehicle: saline with Tween-80 108 % of control | [17] 101 % of control
